Results: patent publication US10047164B2, “Methods and compositions for the treatment of pancreatic cancer” (Opsona Therapeutics Ltd., priority 2012, dated 2018)

Key:
[1] = tested on: KPC cell line orthotopic pancreatic tumours; details: treatment at the induction of tumours; over 49 days (FIG. 1); OPN-305 10 mg/kg i.v. once weekly, Gemcitabine 100 mg/kg i.p. twice weekly, Abraxane 10 mg/kg i.v. day 0
Text: A preclinical mouse model of pancreatic cancer was established where a KPC cell line derived from the genetically engineered ‘KPC’ mouse with pancreas-specific mutant Kras and mutant TP53 genetic background (LSL-KrasG12D; p53R172H, Pdx1-Cre) backcrossed several generations with C57Bl/6 mice was implanted as allograft, orthotopically in the pancreas of C57bl/6 (B6) mice. In brief, a subcutaneous tumour was first established by injecting 2.5 million cells under the skin of C57Bl/6 mice. Ten days later, the tumour was excised and chopped into smaller pieces, roughly 1 mm^3 in size, and implanted orthotopically into pancreas of C57Bl/6 mice. For orthotopic implantation into the pancreas, each mouse was anesthetized with 2.5% Avertin, 0.013 ml/g B.W. All surgical procedures were performed under aseptic conditions with use of sterile gloves and autoclaved instruments. The skin was disinfected with betadine followed by alcohol and this procedure was repeated twice. A left lateral oblique incision was made through the skin and then through the body wall just below the stomach. […] The growth of orthotopic tumours were measured over the period of 12-16 weeks by non-invasive ultrasound (Vevo2100, VisualSonic). […] The orthotopically implanted tumours were measured by ultrasound 5 days post-surgery and randomized into various treatment arms as below: • 1. […]

[2] = tested on: pancreatic tumours in KPC mice; details: Science 2009; cited from earlier work
[3] = tested on: advanced pancreatic cancer; details: patients with advanced pancreatic cancer; cited from earlier work

Molecule | tumour volume [1] | tumours demonstrating a change in growth kinetics after treatment [2] | improvement in median survival duration [3]
OPN-305: humanized version of T2.5, a murine IgG1 anti-TLR2 antibody; described in WO2011/003925 | reduced tumour volume to a greater extent than treatment with a combination of Gemcitabine+Abraxane | – | –
Nc1ccn([C@@H]2O[C@H](CO)[C@@H](O)C2(F)F)c(=O)n1 [Gemcitabine] | – | 12% | 5 week
